Where two headings read alike, the source gives them in different places.

Test [1] concerns HSV-2. Kind of test: Inhibition of Herpes Simplex Virus (HSV-2) replication in cell culture. Type of test: cell-based. The gist of the method: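 Serum-starved BHK-21/C13 cells infected with HSV-2 strain HG-52 (MOI 0.02 PFU/cell), then exposed to compound in BBMT medium for 29 h at 37°. Progeny virus titrated on fresh BHK-21/C13 cells by neutral red viability read at 540; EC50 as concentration halving virus replication.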

Test [2] deals with T1, HSV-1 ribonucleotide reductase (Human herpesvirus 1, UniProt P08543).
T1 construct: HSV-1 ribonucleotide reductase (partially purified) was obtained from quiescent BHK-21/C13 cells infected with strain F HSV-1 virus; made in house; host or cells: quiescent BHK-21/C13 cells infected with HSV-1 strain F (virus-encoded enzyme, partially purified)
Briefly: Inhibition of Herpes Simplex Virus (HSV-1) ribonucleotide reductase. Type of test: biochemical. An outline of the steps: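 Partially purified enzyme from quiescent BHK-21/C13 cells infected with HSV-1 strain F at 10 PFU/cell, used at constant units per assay. IC50 taken as concentration giving 50% of maximal inhibition versus no-compound control; mean of four assays.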

Setting [3] is: Human alphaherpesvirus 2, Table V, cell culture assay of example 11.
The mark [4] stands for this setting: Human alphaherpesvirus 2, Table IV, cell culture assay of example 11, read-out: EC50.

T1 sequence (P08543 whole entry): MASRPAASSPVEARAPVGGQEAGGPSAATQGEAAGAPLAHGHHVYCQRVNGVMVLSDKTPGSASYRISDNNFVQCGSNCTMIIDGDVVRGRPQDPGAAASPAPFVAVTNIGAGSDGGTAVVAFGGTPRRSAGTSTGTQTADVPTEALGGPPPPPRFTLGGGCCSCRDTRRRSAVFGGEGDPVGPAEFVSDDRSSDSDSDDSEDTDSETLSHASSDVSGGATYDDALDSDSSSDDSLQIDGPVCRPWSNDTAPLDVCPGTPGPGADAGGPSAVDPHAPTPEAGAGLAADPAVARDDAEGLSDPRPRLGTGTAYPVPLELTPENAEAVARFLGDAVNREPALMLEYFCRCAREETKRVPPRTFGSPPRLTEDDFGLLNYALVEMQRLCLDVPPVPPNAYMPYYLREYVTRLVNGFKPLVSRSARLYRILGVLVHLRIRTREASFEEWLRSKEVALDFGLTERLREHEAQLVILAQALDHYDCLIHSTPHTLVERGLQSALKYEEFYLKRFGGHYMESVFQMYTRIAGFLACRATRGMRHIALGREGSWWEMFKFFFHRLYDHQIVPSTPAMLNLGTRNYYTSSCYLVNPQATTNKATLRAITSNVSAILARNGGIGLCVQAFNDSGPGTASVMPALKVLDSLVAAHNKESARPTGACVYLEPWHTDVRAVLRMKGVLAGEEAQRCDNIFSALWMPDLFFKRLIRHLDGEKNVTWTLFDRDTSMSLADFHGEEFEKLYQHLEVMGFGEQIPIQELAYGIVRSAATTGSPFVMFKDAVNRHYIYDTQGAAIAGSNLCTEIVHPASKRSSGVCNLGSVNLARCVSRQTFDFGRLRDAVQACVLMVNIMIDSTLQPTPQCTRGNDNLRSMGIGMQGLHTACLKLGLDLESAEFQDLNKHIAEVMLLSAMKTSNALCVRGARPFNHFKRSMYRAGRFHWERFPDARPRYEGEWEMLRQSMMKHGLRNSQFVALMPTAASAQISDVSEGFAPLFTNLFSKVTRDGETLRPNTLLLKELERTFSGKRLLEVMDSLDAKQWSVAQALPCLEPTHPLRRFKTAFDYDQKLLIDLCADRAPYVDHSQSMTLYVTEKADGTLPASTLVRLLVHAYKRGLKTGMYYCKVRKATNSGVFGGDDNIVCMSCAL

`CCCC(CCC)NC(=O)NC(C(=O)CC(CC(=O)C(C)(C)C)C(=O)NC(C(=O)NCC(C)(C)C)C(CCC)C(=O)O)C(C)(C)C` [Pr2CHNHC(O)-Tbg-CH2-(R)-CH(CH2-C(O)CMe3)C(O)-Asp{(R)-Pr}-NHCH2CMe3]: in test [1] (setting [3]), the concentration for a half-maximal effect (EC50) came to 46 µM. In test [2] (Table V, assay of example 10), the midpoint of inhibition, the IC50, lay at 0.25 µM.

`CCCC(CCC)NC(=O)NC(C(=O)CC(CC(=O)C(C)(C)C)C(=O)NC(C(=O)NC(CCC)C(C)(C)C)C1(C(=O)O)CCCC1)C(C)(C)C` [Pr2CHNHC(O) / NH-(R)-CH(Pr)CMe3, Pr2CHNHC(O)-Tbg-CH2-(R)-CH(CH2C(O)CMe3)C(O)-Asp(cyPn)-NH-(R)-CH(Pr)CMe3]: in test [1] (setting [4]), the half-maximal effective concentration (EC50) was 15 µM. For the same compound, in test [2] (Table IV, assay of example 10), the IC50 turned out to be 0.43 µM.

With `CCCC(CCC)NC(=O)NC(C(=O)CC(CC(=O)C(C)(C)C)C(=O)NC(C(=O)NC1CCCCC1C)C1(C(=O)O)CCCC1)C(C)(C)C` [Pr2CHNHC(O)-Tbg-CH2-(R)-CH(CH2C(O)CMe3)C(O)-Asp(cyPn)-cis-NH-(2-methyl-cyclohexyl)], in test [1] (setting [4]), the 50% effective concentration (EC50) came out at 75 µM. This compound also yielded an IC50 in test [2] (Table IV, assay of example 10) of 0.67 µM.

For `CCCC(CCC)NC(=O)NC(C(=O)CC(CC(=O)C(C)(C)C)C(=O)NC(C(=O)NCC(C)(C)C)C1(C(=O)O)CCCC1)C(C)(C)C` [Pr2CHNHC(O)-Tbg-CH2-(R)-CH(CH2C(O)-CMe3)C(O)-Asp(cyPn)-NHCH2CMe3], the concentration for a half-maximal effect (EC50) in test [1] (Human alphaherpesvirus 2, BHK21 (C13), 29 h, Table II, BHK-21/C13 cells, HSV-2 strain HG-52, 0.02 PFU/cell, 29 h incubation, read-out: EC50) came to 24 µM. Also, the IC50 in test [2] (Table I, partially purified enzyme from BHK-21/C13 cells infected with strain F HSV-1, mean of four assays) amounted to 0.08 µM.

For the compound `C=CCC(C(=O)O)C(NC(=O)C(CC(=O)C(NC(=O)NC(CCC)CCC)C(C)(C)C)CC(=O)C(C)(C)C)C(=O)NCC(C)(C)C` [Pr2CHNHC(O)-Tbg-CH2-(R)-CH(CH2-C(O)CMe3)C(O)-Asp{(R)-allyl}-NHCH2CMe3], the half-maximal effective concentration (EC50) in test [1] (setting [3]) was 62 µM. The same compound displayed an IC50 in test [2] (Table V, assay of example 10) of 0.3 µM.

As for `CCCC(CC)(CCC)NC(=O)NC(C(=O)CC(CC(=O)C(C)(C)C)C(=O)NC(C(=O)NC(C)C(C)(C)C)C1(C(=O)O)CCCC1)C(C)(C)C` [EtPr2CNHC(O) / NH-(R)-CH(Me)CMe3, EtPr2CNHC(O)-Tbg-CH2-(R)-CH(CH2C(O)CMe3)C(O)-Asp(cyPn)-NH-(R)-CH(Me)CMe3], the EC50 in test [1] (setting [4]) came out at 10 µM. Moreover, in test [2] (Table IV, assay of example 10), the half-inhibitory concentration (IC50) was 0.41 µM.

Consider `CCCC(CCC)NC(=O)NC(C(=O)CC(CC(=O)C(C)(C)C)C(=O)NC(C(=O)NC1CCCC1(C)C)C1(C(=O)O)CCCC1)C(C)(C)C` [Pr2CHNHC(O)-Tbg-CH2-(R)-CH(CH2C(O)CMe3)C(O)-Asp(cyPn)-NH-(2,2-dimethyl-cyclopentyl)], for which the EC50 in test [1] (setting [4]) turned out to be 31 µM. For the same compound, in test [2] (Table IV, assay of example 10), the IC50 turned out to be 0.38 µM.

As for `CCCC(C)(CCC)NC(=O)N[C@H](C(=O)C[C@@H](CC(=O)C(C)(C)C)C(=O)N[C@H](C(=O)NCC(C)(C)C)C1(C(=O)O)CCCC1)C(C)(C)C` [MePr2CNHC(O) / NHCH2CMe3, MePr2CNHC(O)-Tbg-CH2-(R)-CH(CH2C(O)CMe3)C(O)-Asp(cyPn)-NHCH2CMe3], the EC50 in test [1] (setting [4]) was 26 µM. In test [2] (Table IV, assay of example 10), this compound showed a half-inhibitory concentration (IC50) of 0.28 µM.
